The text below walks through data of patent publication US20230150977A1, “PYRIDAZINONE COMPOUNDS FOR THE TREATMENT OF NEUROMUSCULAR DISEASES” (Edgewise Therapeutics, Inc., priority 2020, published 2023).

pIC50: −log10 of the molar value. Bounds are passed on as bounds.

Assay [1] relates to embryos from zebrafish model of DMD. The note with it: Li and Arner, PLoSONE, 2015; cited from earlier work.
Assay [2] has as its target skeletal myofibrils (Rabbit Psoas) myosin ATPase. Put plainly: Skeletal Myofibril ATPase Assay. The format is biochemical. The note with it: PK/LDH coupled, absorbance at 340 nm. The method, then: Overview: Myosin ATPase activity was assessed by using a coupled reaction system, in which ADP generated by the myosin ATPase function was coupled to the disappearance of NADH through the pyruvate kinase/lactate dehydrogenase (PK-LDH) system. Myosin ATPase activity produces ADP, which was used as a substrate for PK to produce pyruvate and regenerate ATP. The pyruvate was then used as a substrate by LDH to oxidize NADH to NAD+. The rate of the reaction was monitored through the time-dependent disappearance of NADH using absorbance at 340 nm. Inhibition of ATPase activity by the assayed compounds was indicated by a reduced rate of NADH loss, relative to vehicle-treated controls, over the experimental time window. To assess the selectivity of the assayed compounds for skeletal myofibrils, the compounds were counter-screened in cardiac myofibrils.
Materials: The following stock solutions and reagents were used in the Skeletal Myofibril ATPase Assay:
Stock Solutions of pCa buffer. Combine PIPES, CaCl2, and EGTA solutions with 70 mL of water. Adjust pH to 7.0 and bring final volume to 100 mL.
Buffer A & Buffer B. Buffers were stored on ice until use.
Skeletal Myofibril ATPase Assay Procedure: BSA, ATP, NADH, PEP, and DTT solutions were thawed at room temperature, then transferred to ice. Pellet-frozen myofibrils (approximately twice the required volume) were transferred into a sufficiently large tube and capped. Myofibrils were thawed by rolling in a water bath for approximately 15 min at room temperature and cooled on ice. Buffers A and B were prepared by adjusting volumes as necessary for required number of wells and stored on ice. 0.5 μL of the compounds to be assayed were added into wells of a 384-well plate. Buffers A and B were mixed by inversion immediately prior to use, then 25 μL of each was dispensed using a Multidrop dispenser (Buffer A first, then Buffer B). The absorbance within the wells was measured at 340 nm, using a kinetic protocol in which the wells are read every 1.5-2 min for 1 h. The reaction rate was qualitatively assessed by subtracting the minimum absorbance value from the maximum value for each well, using either the SoftMax Pro plate reader software or a spreadsheet program such as Excel. Using GraphPad Prism 8.0, the data was normalized, with 100% activity defined as the absorbance change in the 1% DMSO vehicle wells and 0% assigned to no change in absorbance over the course of the experiment. The normalized data were fit to a variable-slope four-parameter logistic model, constraining the bottom to be 0 or greater. Compounds of Table 1 to 3 were tested and results of the assay appear in Table 4 herein. A=IC50 is less than or equal to 10 μM; B=IC50 is greater than 10 μM and less than 100 μM; C=IC50 is greater than 100 μM.

Regarding `Cc1ccc(S(=O)(=O)NCc2ccccc2)cc1` [BTS, N-benzyl-p-tolyl-sulfonamide], the “protection of muscles from pathological muscle derangement” value in assay [1] was “protect muscles from pathological muscle derangement”.

A word on the pIC50: it is the negative decadic logarithm of the IC50, by convention in mol/L. A lower pIC50 goes with a large IC50. In the case of `O=C(CCn1nc(-c2ccccc2)ccc1=O)NC1CCCCC1` [Compound 36, N-cyclohexyl-3-(6-oxo-3-phenylpyridazin-1(6H)-yl)propanamide], in assay [2], the pIC50 was below 4.00.

`COc1ccc(-c2ccc(=O)n(CCNC(=O)Nc3cccs3)n2)cc1` [Compound 37, 1-(2-(3-(4-methoxyphenyl)-6-oxopyridazin-1(6H)-yl)ethyl)-3-(thiophen-2-yl)urea] gave a pIC50 in assay [2] below 4.00.
